Our source for the IC50 values is patent publication US8569294B2, “2-(cyclic amino)-pyrimidone derivatives” (Mitsubishi Tanabe Pharma Corporation, priority 2006, dated 2013).

Usually IC50 stands for the concentration at which inhibition is half-maximal.

The target of the experiment is T1, bovine cerebral TPK1 (Bos taurus, UniProt A0A3Q1MT31).
T1 construct: P-GS1 Phosphorylation by Bovine Cerebral TPK1; from tissue; host or cells: bovine cerebrum (brain)
T1 sequence (A0A3Q1MT31 1-419): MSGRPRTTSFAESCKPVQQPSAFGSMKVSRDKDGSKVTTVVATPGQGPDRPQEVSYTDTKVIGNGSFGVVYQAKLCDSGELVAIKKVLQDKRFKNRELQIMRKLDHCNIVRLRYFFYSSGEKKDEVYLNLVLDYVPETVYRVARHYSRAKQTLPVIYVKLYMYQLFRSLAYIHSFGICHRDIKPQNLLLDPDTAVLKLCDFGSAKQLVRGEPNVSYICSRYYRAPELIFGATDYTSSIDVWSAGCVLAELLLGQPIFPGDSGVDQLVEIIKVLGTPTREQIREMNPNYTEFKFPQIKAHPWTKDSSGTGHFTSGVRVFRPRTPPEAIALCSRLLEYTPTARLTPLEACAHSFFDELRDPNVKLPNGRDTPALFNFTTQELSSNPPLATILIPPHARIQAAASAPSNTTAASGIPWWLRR
Kind of experiment: Inhibitory activity against P-GS1 phosphorylation by bovine cerebral TPK1. In kind it is biochemical. The following applies: 41.7 μM [γ-32P] ATP, 25° C., 2 hours. On the procedure:
Inhibitory Activity of the Medicament of the Present Invention Against P-GS1 Phosphorylation by Bovine Cerebral TPK1
A mixture containing 100 mM MES-sodium hydroxide (pH 6.5), 1 mM magnesium acetate, 0.5 mM EGTA, 5 mM β-mercaptoethanol, 0.02% Tween 20, 10% glycerol, 12 μg/ml P-GS1, 41.7 μM [γ-^32P] ATP (68 kBq/ml), bovine cerebral TPK1 and a compound shown in Table (a final mixture contained 1.7% DMSO deriving from a solution of a test compound prepared in the presence of 10% DMSO) was used as a reaction system. The phosphorylation was started by adding ATP, and the reaction was conducted at 25° C. for 2 hours, and then stopped by adding 21% perchloric acid on ice cooling. The reaction mixture was centrifuged at 12,000 rpm for 5 minutes and adsorbed on P81 paper (Whatmann), and then the paper was washed four times with 75 mM phosphoric acid, three times with water and once with acetone. The paper was dried, and the residual radioactivity was measured using a liquid scintillation counter.
In turn, `Cn1c(N2CCO[C@H]3CCCC[C@@H]32)nc(-c2ccncn2)cc1=O` (racemic) [B69, 1-Methyl-2-((4aRS,8aRS)-trans-octahydro-benzo[1,4]oxazin-4-yl)-1H-[4,4′]bipyrimidinyl-6-one] registered a concentration for half-maximal inhibition (IC50) of 4 nM.

Consider `Cn1c(N2CCO[C@H]3c4ccccc4CC[C@@H]32)nc(-c2ccncc2F)cc1=O` [B6], for which the IC50 was determined as 1.7 nM.

Turning to `Cn1c(N2CC3CCC2C(c2ccccc2)C3)nc(-c2ccncc2)cc1=O` (centres unmarked) [B9], the IC50 came out at 1.2 nM.

`COc1ccccc1NC1CC2CCC(C1)N2c1nc(-c2ccncc2F)cc(=O)n1C` (centres unmarked) [B16] returned an IC50 of 2.8 nM. Compared with the last molecule, the IC50 is about 2.3-fold higher.

With `COc1ccc2c(c1)CC[C@H]1[C@H]2OCCN1c1nc(-c2ccncc2F)cc(=O)n1C` [B20], 1.1 nM corresponded to half-maximal inhibition (IC50). This IC50 is about 2.5-fold lower than that of the molecule before.

The molecule `COc1cccc2c1CC[C@@H]1[C@H]2OCCN1c1nc(-c2ccncc2)cc(=O)n1C` [B37] gave a concentration for half-maximal inhibition (IC50) of 1.5 nM.

`Cn1c(N2CCO[C@H]3c4ccccc4OC[C@H]32)nc(-c2ccncn2)cc1=O` [B46]: half-maximal inhibition (IC50) was put at 2.5 nM.

On to `C[C@@H]1COCCN1c1nc(-c2ccncc2F)cc(=O)n1C` [B62], for which the IC50 worked out at 7 nM.

The molecule `Cn1c(N2C3CCCC2CC3)nc(-c2ccncc2F)cc1=O` [B77] displayed an IC50 of 9.8 nM.

The molecule `Cn1c(N2CCN3CCc4ccccc4C3C2)nc(-c2ccncc2)cc1=O` (centres unmarked) [B109, 2-(1,3,4,6,7,11b-Hexahydro-pyrazino[2,1-a]isoquinolin-2-yl)-3-methyl-6-pyridin-4-yl-3H-pyrimidin-4-one] had an IC50 of 14 nM.

For the molecule `COc1ccccc1N1C[C@@H]2CN(c3nc(-c4ccncc4F)cc(=O)n3C)C[C@@H]2C1` [D16], the half-inhibitory concentration (IC50) turned out to be 14 nM.

In turn, `COc1cccc(N[C@@H]2CCN(c3nc(-c4ccncn4)cc(=O)n3C)C2)c1` [D42] came in with an IC50 of 7.9 nM.

On to `Cn1c(N2CCCC2Cc2ccccc2)nc(-c2ccncc2F)cc1=O` (centres unmarked) [D95], for which the IC50 amounted to 5.6 nM.

`C[C@@H]1CN(c2ccccc2)CCN1c1nc(-c2ccncn2)cc(=O)n1C` [F24] gave an IC50 of 1.4 nM.

`C[C@@H]1CN(c2ncccn2)CCN1c1nc(-c2ccncc2F)cc(=O)n1C` [F56] registered a half-maximal inhibitory concentration (IC50) of 2.2 nM.

Molecule `C[C@@H]1CN(C(=O)c2ccc(N(C)C)cc2)CCN1c1nc(-c2ccncn2)cc(=O)n1C` [F69] registered a half-inhibitory concentration (IC50) of 2.4 nM.

In the case of `C[C@H](N)c1nc(-c2ccc(N3CCN(c4nc(-c5ccncc5)cc(=O)n4C)[C@H](C)C3)cc2)no1` [F148], the IC50 was 2.6 nM.
